Consider 5 compounds from patent publication US7179943B2, “Bicyclic derivatives that modulate voltage-gated potassium channels and methods of use thereof” (Wyeth, priority 2004, dated 2007).

SMILES strings stand for the structures.

For data set [1], the system named is mouse Elevated Zero Maze. The data set can be described thus: Anxiolytic activity: mouse Elevated Zero Maze model. The format is in vivo. The conditions noted are these: 30 min prior to testing, mice; for % Total Distance Traveled (Relative to Control): 3 mg/kg ip. As for the experimental part:
Anxiolytic activity of the compounds of formula I was determined using the mouse Elevated Zero Maze model, originally described by Shepherd, et al. (Psychopharmocol. (1994) 116:56–64), incorporated herein by reference in its entirety. Anxiolytic efficacy was measured as the ability of the test compound to increase the amount of time that the mice spent in the open zones of the maze. To account for the possibility of false positive results due to increased locomotor activity, total distance traveled during the course of the experiment was also monitored.
The zero maze, constructed of black Perspex, consisted of a circle (outer diameter approximately 60 cm, width 5 cm) that was elevated 55 cm above the floor. The zero maze was divided into 4 equal quadrants, alternating between open and closed. […] Animals were tested under low levels of illumination in the presence of red light. Test animals (male CN57BI/n mice) were group housed with ad lib access to food and water. On the day of testing, animals were brought into the behavioral testing room and allowed to habituate for a period of not less than one-half hour. Test compounds were administered at the appropriate dose ip. 30 min prior to testing on the zero maze. Control animals were administered the test vehicle. Animals were placed on the zero maze with their head and forepaws contained within a closed quadrant. The animals' behavior was then recorded for 4 minutes and the distance traveled, the amount of time spent in, and number of entries into, each quadrant was noted. Behavior was monitored utilizing an automated video tracking system. Results for the test compounds are presented here as the percentage relative to that obtained with the control animals.

Data set [2] deals with T1, human Kv1.1/Kvβ1 potassium ion channel complex (Homo sapiens, UniProt Q09470).
T1 construct: expressed in transfected cells; host or cells: Xenopus oocytes injected with cRNA
The experiment in a line: Xenopus oocytes current assay (inhibition of inactivation, voltage clamp). The format is cell-based. The note with it: Xenopus oocytes expressing hKv1.1/hKvβ1, relative to control bath solution, read-out: Percent Increase in Steady State Current Of human Kv1.1/Kvβ1 @ a concentration of 50 μM. As for the experimental part: The compounds of formula I were examined for their ability to inhibit the inactivation of the human Kv1.1/Kvβ1 potassium ion channel complex in vitro using electrophysiological current recordings on inactivating Kv1.1/Kvβ1 channels expressed in Xenopus oocytes. Xenopus oocytes were harvested from frogs under general anesthesia using aseptic techniques. Oocytes were treated with 2 mg/ml collagenase for 1–1.5 hr, defolliculated, and injected with 40 nL cRNA (a mixture of hky1.1 and hKvβ1) produced using standard molecular biological techniques (Sambrook, et al., 1989, Molecular Cloning: A Laboratory Manual). The concentration of hKv1.1/hKvp1 cRNA varies, but was generally about 50 ng/μL hKv1.1 and […] hKβ1.
Currents were recorded using standard voltage clamp amplifiers at room temperature. Recordings were performed in the bath solution “ND-96” containing 96 mM NaCl, 2 mM KCl, 1 mm CaCl2, 1 mM MgCl2, 10 mM HEPES and […] Gentamycin (pH=7.6). The pipette (electrode) solution generally consisted of […]. Electrodes were made from WPI TW150F-4 borosilicate glass (or equivalent) and typically had resistances of 0.5–1.5 Mohms. The standard current-voltage (IV) pulse protocol consisted of voltage steps from −60 mV to +50 mV, in 10 mV increments for 200 ms, at a frequency of one IV set per 2 minutes. Data were digitized and analyzed by standard software packages.
Solutions of the test compounds consisting of test compounds dissolved in bath solution were applied by bath perfusion using gravity or pump-driven flow. A minimum of 2 mL (10 times the bath volume) over 3 minutes were flowed for each compound concentration tested. Data were averaged across at least 3 cells tested for each concentration.
Test compounds were examined for their ability to inhibit the inactivation of the steady state portion of the IV curve.

T1 sequence (Q09470 whole entry, one chain of several): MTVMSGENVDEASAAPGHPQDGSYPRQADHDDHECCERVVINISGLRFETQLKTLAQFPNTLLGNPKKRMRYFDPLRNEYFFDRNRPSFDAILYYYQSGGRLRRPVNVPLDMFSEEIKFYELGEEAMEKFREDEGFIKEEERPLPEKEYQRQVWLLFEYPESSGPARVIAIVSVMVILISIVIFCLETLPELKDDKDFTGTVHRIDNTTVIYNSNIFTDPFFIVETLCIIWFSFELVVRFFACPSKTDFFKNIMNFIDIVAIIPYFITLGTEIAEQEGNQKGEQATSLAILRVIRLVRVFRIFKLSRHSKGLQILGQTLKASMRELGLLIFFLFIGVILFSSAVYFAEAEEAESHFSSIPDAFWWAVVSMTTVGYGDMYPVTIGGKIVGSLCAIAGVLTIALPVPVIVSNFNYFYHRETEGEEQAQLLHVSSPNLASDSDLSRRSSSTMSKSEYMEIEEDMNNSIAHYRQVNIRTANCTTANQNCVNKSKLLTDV

`CN1C(=O)CN=C(c2ccccc2)c2cc(Cl)ccc21` [Diazepam, reference compound]: the figures for the “% Total Distance Traveled (Relative to Control)” value in data set [1] and in data set [1] (listed as diazepam) were 75% and “small decrease”, respectively.
For `CC1(C)C2CC[C@]1(C)C(=O)C(C(=O)Nc1cccc(C(F)(F)F)c1)C2=O` (stereo partly drawn) [Example 2, (1S)-N-[3-(trifluoromethyl)phenyl]-1,8,8-trimethyl-2,4-dioxobicyclo[3.2.1] octane-3-carboxamide], the melting point (commonly the temperature of the solid-liquid transition) was in the range of 60 to 62 °C. The “% Time Spent in Open Zones (Relative to Control)” value in data set [1] (60 mg/kg ip.) is 140%. For the same compound, the activation at 50 µM in data set [2] was found to be 22%.
The compound `CC1(C)C2CC[C@@]1(C)C(=O)C(C(=O)Nc1ccc(F)c(C(F)(F)F)c1)C2=O` (stereo partly drawn) [Example 21, (1R)-N-[3(trifluoromethyl)-4-fluorophenyl]-1,8,8-trimethyl-2,4-dioxobicyclo [3.2.1]octane-3-carboxamide] gave a melting point of 96 to 98 °C. For the same compound, the activation at 50 µM in data set [2] is 229%.
With `O=C(Nc1cc(C(F)(F)F)cc(C(F)(F)F)c1)C1C(=O)C2CCC(C2)C1=O` (centres unmarked) [Example 23, N-[3,5-bis(trifluoromethyl)phenyl]-2,4-dioxobicyclo[3.2.1]octane-3-carboxamide], the melting point was 88 to 90 °C. The activation at 50 µM in data set [2] is 137%.
`CC1(C)C2CC[C@@]1(C)C(=O)C(C(=O)Nc1ccc(F)c(Cl)c1)C2=O` (stereo partly drawn) [Example 20, (1R)-N-[3-chloro-4-fluorophenyl]-1,8,8-trimethyl-2,4-dioxobicyclo[3.2.1] octane-3-carboxamide] yielded a melting point of 89 to 91 °C. Further, in data set [2], the activation at 50 µM was 267%.
